15 compounds from patent publication US20110144014A1, “CYTOKINE RECEPTOR MODULATORS AND USES THEREOF” (CENTRE HOSPITALIER UNIVERSITAIRE SAINTE-JUSTINE, priority 2005, published 2011) can be followed below.

Like-named read-outs stand apart in the source and are kept apart here. Where a SMILES comes first, the peptide text is derived from it. Where no end group is shown, it is not given here. [ ]: non-standard residue; d: D form. dOrn = NCCC[C@@H](N)C(=O)O; Orn = NCCC[C@H](N)C(=O)O Where only a bound is given, the exact number is not on record here.

For test [1], the target named is T1, IL-1R/IL-1RacP (Homo sapiens, UniProt P14778+Q9NPH3).
T1 construct: TF-1 cells; endogenous in cells; host or cells: TF-1
T1 sequence (P14778 18-569): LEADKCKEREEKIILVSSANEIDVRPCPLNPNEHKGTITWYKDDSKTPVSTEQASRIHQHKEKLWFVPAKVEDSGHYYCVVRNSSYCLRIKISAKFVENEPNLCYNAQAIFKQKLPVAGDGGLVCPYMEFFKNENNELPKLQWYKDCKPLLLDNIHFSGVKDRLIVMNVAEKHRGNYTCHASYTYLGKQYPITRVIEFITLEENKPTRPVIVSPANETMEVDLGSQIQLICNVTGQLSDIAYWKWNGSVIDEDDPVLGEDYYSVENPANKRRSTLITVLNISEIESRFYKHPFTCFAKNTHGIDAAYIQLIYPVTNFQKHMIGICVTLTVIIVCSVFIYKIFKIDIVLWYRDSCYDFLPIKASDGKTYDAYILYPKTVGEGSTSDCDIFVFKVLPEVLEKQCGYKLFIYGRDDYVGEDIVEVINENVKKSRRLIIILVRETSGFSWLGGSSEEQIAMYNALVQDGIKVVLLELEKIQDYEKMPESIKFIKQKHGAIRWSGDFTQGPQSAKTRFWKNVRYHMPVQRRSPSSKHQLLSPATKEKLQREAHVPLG
T1 sequence (Q9NPH3 21-570): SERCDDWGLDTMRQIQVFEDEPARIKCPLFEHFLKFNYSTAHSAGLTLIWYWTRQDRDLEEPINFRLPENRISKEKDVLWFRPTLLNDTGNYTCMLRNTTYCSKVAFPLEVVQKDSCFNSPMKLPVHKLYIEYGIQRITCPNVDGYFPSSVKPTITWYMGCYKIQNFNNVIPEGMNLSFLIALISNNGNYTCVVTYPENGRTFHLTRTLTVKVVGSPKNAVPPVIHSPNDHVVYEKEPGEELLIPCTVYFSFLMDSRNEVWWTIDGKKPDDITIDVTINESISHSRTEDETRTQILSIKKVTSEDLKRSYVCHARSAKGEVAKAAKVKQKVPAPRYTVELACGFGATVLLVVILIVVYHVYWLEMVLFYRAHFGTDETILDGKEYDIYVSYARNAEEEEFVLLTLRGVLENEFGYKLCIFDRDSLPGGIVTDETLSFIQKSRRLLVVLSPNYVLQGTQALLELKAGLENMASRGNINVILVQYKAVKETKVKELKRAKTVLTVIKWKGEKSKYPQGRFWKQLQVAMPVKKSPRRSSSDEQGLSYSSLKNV
In words: IL-1β-induced proliferation in TF-1 cells. The format is cell-based. The following applies: for activity relative to 101.113: Table 11.

Test [2] relates to TNBS-induced colon inflammation. Kind of test: TNBS rat model of inflammatory bowel disease. The format is in vivo. As for the experimental part:
Colon inflammation was induced by intra-rectal/colon administration of the hapten trinitrobenzene sulphonic acid (TNBS) on male Sprague-Dawley rats (175-200 g) (Bouma, Nature Rev, 2003; Morris, Gastroenterology, 1989). Animals were anesthetized with isoflurane and TNBS dissolved in 50% ethanol (vol/vol). 120 mg/ml (TNBS) was administered into the colon (total volume of 0.25 ml per rat) using a polyethylene tube (PE50). The cannula was inserted at 8 cm from the anus and kept in place for at least 15 minutes after TNBS administration in order to prevent expulsion of the solution. Two hours prior to TNBS administration, the API-101 derivative API-101.10 (1.1 mg/kg) or 0.9% saline was administered intravenously via the caudal vein (total volume of 0.3 ml). […] A third group (control) was not injected with TNBS. Six days after administration of TNBS, rats were killed by CO2 inhalation. Day 6 was chosen as an endpoint because by day 7 spontaneous tissue regeneration begins and this can mask the therapeutic effect of the tested peptide or peptide derivative. Colon was removed and examined macroscopically (adhesions, ulcerations, discoloration and bleeding) and histologically (neutrophil infiltration, epithelial injury, crypt distortion and ulcerations) (Anthony et al., Int. J. Exp. Path. 76:215-224, 1995; Padol et al., Eur. J. of Gastroenterol. Hepatol. 12:257-265, 2000; Dieleman et al., […], 1997; Torres et al., Digestive Diseases and Sciences 44:2523-2529, 1999). Two animals per group were studied.
Histological transversal sections were cut at 4-6 cm from the proximal anal region and colored with the hematoxylin/eosin method. The TNBS model of inflammatory bowel disease reproduces the inflammatory characteristics and tissue injuries of Crohn's disease (e.g., in humans). Morphologically, the colon of the animals injected with TNBS presented thickening, edema, and discoloration of the intestinal wall indicating a significant inflammation. […] Histological features consisted of neutrophil infiltration into the epithelial layer and crypts, epithelial lining injury as well as the loss of crypts. […] The organization and integrity of the crypts in the API-101.10-treated colon is conserved even if there is still some inflammation (half the dose of API-101.10 was used as compared to the macroscopic analysis experiment).
Colon inflammation was induced by intra-rectal/colon administration of the hapten trinitrobenzene sulphonic acid (TNBS) as described above. Two hours prior to TNBS administration, peptides, peptidomimetics or 0.9% saline were administered intravenously (iv) via the caudal vein (various concentrations of mg/kg/d) (total volume of 0.3 ml). […] A third group (control) was not injected with TNBS. For intermittent administration, fifteen minutes after TNBS administration, 101.10 (0.25-1 mg/kg), 101.107 (0.2 mg/kg), 101.113 (0.05-1 mg/kg) were administered by intermittent intraperitoneal injection (ip). Also, these IL-1R antagonists were given twice a day (BID); Remicade® (anti-TNFα) (10 mg/kg) and dexamethasone (0.75 mg/kg) were administered intraperitoneally but only once a day (qd). The intrarectal administration (ir) of 101.10, 101.113 (1 and 2.5 mg/kg), and 5-ASA (50 mg/kg) was done one hour after TNBS administration, and twice a day, except for 5-ASA which is once a day. Finally, 101.10 (1-5 mg/kg) was also administered orally by gavage (po), twice a day. Forty-eight hours after administration of TNBS, rats were killed by CO2 inhalation. The colon was removed and assessed macroscopically (adhesions, ulcerations, discoloration and bleeding) and histologically (neutrophil infiltration, epithelial injury, crypt distortion and ulcerations). One to seven animals per group were studied, according to treatments. Myeloperoxidase (MPO) activity was measured on tissue lysates.

Test [3] concerns the target IGF-1R (Homo sapiens, UniProt P08069). Kind of test: IGF-1 induced proliferation of MCF-7 breast carcinoma cells (3H-thymidine). The format is cell-based. Also on record: MCF-7 breast carcinoma cells; endogenous in cells; host or cells: MCF-7. The following applies: MCF7; MCF-7 (breast cancer) cells; Table 5; read-out: Emax. Here is the method:
We also tested the effect IGF-1R antagonist peptides on IGF-1 induced proliferation in other cancer cell types (MCF-7 breast carcinoma cells, HepG2 hepatocarcinoma cells, and MDA-MB-231 breast adenocarcinoma cells). Different cancer cells were pre-incubated (45 min.) with different concentrations of peptides prior to stimulation with IGF-1 (50 ng/ml) (37° C.) for 24 hours; fetal calf serum was omitted 24 hours prior to stimulation with IGF-1 to avoid proliferative effects by other mitotic agents. ^3H-thymidine (1 μCi/ml) was then added for 24 hours, after which cells were washed three times with 5% cold TCA and lysed with 0.1N NaOH/0.1% Triton X-100. Radioactivity was measured with a scintillation counter. Experiments were repeated 3 times in duplicates (FIG. 15). […]

Setting [4] is: TF-1, IL-1β-induced, Table 10, read-out: Emax (%), proliferation in TF-1 cells (human).
Where [5] appears, read: TF-1, Table 11, read-out: Emax (%), IL-1β-induced TF-1 proliferation.
[6] abbreviates: intermittent injection (ip), 0.75-qd mg/kg/d.
[7] abbreviates: intrarectal administration, 50.0-qd mg/kg/d.
The mark [8] stands for this setting: continuous infusion (ip), 8.0 mg/kg/d.
Setting [9] is: intermittent injection (ip), 10.0-qd mg/kg/d.

Chain of IGF-1R (P08069 31-736 limits assumed): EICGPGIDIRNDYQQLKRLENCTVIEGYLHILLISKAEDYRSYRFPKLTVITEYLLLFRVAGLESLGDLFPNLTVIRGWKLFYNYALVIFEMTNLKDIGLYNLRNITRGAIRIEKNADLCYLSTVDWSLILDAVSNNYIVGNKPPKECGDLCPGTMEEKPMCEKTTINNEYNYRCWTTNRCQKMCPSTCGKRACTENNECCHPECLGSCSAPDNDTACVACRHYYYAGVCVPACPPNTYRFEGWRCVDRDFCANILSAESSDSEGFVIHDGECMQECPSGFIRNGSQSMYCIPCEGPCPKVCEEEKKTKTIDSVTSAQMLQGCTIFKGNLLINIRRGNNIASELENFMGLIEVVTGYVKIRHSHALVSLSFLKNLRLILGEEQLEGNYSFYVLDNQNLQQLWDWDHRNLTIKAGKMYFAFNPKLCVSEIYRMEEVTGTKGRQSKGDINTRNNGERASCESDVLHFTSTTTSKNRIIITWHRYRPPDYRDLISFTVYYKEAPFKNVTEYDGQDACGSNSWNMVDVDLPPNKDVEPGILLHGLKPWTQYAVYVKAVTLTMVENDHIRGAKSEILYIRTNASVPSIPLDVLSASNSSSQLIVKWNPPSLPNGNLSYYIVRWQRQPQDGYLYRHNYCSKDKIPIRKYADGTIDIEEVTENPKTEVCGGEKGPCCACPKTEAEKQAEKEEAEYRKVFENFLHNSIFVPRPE
Chain of IGF-1R (P08069 741-1367 limits assumed): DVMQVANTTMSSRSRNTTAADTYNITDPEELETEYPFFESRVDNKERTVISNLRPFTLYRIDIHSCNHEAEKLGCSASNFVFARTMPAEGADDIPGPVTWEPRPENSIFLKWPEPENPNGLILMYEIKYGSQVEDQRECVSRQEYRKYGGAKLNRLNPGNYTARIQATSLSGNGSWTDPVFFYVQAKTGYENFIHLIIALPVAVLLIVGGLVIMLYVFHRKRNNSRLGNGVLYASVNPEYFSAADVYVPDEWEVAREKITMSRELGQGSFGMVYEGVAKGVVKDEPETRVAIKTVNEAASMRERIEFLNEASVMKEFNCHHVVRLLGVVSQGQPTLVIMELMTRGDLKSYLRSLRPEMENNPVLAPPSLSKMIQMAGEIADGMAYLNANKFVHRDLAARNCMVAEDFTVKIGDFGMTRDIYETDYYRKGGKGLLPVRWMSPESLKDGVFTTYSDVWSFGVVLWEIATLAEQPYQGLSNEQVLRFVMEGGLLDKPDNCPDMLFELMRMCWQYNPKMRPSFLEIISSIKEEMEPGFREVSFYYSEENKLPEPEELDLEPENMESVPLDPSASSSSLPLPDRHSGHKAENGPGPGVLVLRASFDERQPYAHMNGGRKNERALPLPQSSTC

For `CC(C)C[C@@H](NC(=O)[C@@H](CCC(=O)O)NC(=O)[C@H]1CCCN1C(=O)[C@H](NC(=O)[C@@H](Cc1ccc(O)cc1)NC(=O)[C@H](N)CCCNC(=N)N)[C@H](C)O)C(=O)O` [API-101.113, RYTPEL], the Emax in test [1] (setting [4]) worked out at 100%.

With `CC(C)C[C@@H](NC(=O)[C@@H](CCC(=O)O)NC(=O)[C@H]1CCCN1C(=O)[C@H](NC(=O)[C@@H](Cc1ccc(O)cc1)NC(=O)[C@H](N)CCCN)[C@H](C)O)C(=O)N[C@H](C)C(=O)O` [API-101.115, XYTPELA (X = Ornithine)] (H-[dOrn][dY][dT][dP][dE][dL][dA]-OH), the Emax in test [1] (setting [4]) worked out at 100%.

In the case of `CC(C)C[C@@H](NC(=O)[C@@H](CCC(=O)O)NC(=O)[C@H]1CCCN1C(=O)[C@H](NC(=O)[C@@H](Cc1c[nH]c2ccccc12)NC(=O)[C@H](N)CCCNC(=N)N)[C@H](C)O)C(=O)N[C@H](C)C(=O)O` [API-101.116, RWTPELA], the Emax in test [1] (setting [4]) was 75%.

Take `CC(C)C[C@H](NC(=O)[C@H](CCC(=O)O)NC(=O)[C@@H]1CCCN1C(=O)[C@@H](NC(=O)[C@H](Cc1ccc(O)cc1)NC(=O)[C@@H](N)CCCN)[C@@H](C)O)C(=O)O` [API-101.126, XYTPEL (X = Ornithine)] (H-[Orn]YTPEL-OH): in test [1] (setting [5]), the Emax stood at 0%. In the case of `CC(C)C[C@@H](NC(=O)[C@@H](CCC(=O)O)NC(=O)[C@H]1CCCN1C(=O)[C@H](NC(=O)[C@@H](Cc1c[nH]c2ccccc12)NC(=O)[C@H](N)CCCNC(=N)N)[C@H](C)O)C(=O)O` [API-101.128, RWTPEL] (H-[dR][dW][dT][dP][dE][dL]-OH; N-terminus and C-terminus assumed), in test [1] (setting [5]), the Emax came to 100%. Besides, in test [1], the “activity relative to 101.113” value is “relatively decreased”. The matching figures for `CC(C)C[C@@H](NC(=O)[C@@H](CCC(=O)O)NC(=O)[C@H]1CCCN1C(=O)[C@H](NC(=O)[C@@H](Cc1ccccc1)NC(=O)[C@H](N)CCCNC(=N)N)[C@H](C)O)C(=O)O` [API-101.132, RFTPEL] (H-[dR][dF][dT][dP][dE][dL]-OH; N-terminus and C-terminus assumed): 35% and “relatively decreased”.

For the compound `CC(C)C[C@@H](NC(=O)[C@@H](CCC(=O)O)NC(=O)[C@H]1CCCN1C(=O)[C@H](NC(=O)[C@@H](Cc1ccc(O)cc1)NC(=O)[C@H](N)CCCNC(N)=O)[C@H](C)O)C(=O)O` [API-101.134, XYTPEL (X = Citrulline)], the Emax in test [1] (setting [5]) is 10%. In addition, the “activity relative to 101.113” value in test [1] is given as “little or no activity”. On to `CC(C)C[C@@H](NC(=O)[C@@H](CCC(=O)O)NC(=O)[C@H]1CCCN1C(=O)[C@H](NC(=O)[C@@H](Cc1ccc(O)cc1)NC(=O)[C@@H](N)CCCNC(=N)N)[C@H](C)O)C(=O)O` [API-101.135, *RYTPEL], for which, in test [1] (setting [5]), the Emax came out at 63%.

As for `C[C@@H]1C[C@H]2[C@@H]3CCC4=CC(=O)C=C[C@]4(C)[C@@]3(F)[C@@H](O)C[C@]2(C)[C@@]1(O)C(=O)CO` [Dexamethasone, dexamethasone, reference compound], in test [2] (setting [6]), the “Histologic evaluation (median score)” value is listed as 3 (Medium ulcer (5-10 crypts)), the “MPO (% of TNBS + Saline)” value is reported as 60 % of TNBS + Saline and the “Macroscopic evaluation (median score)” value came out at 0.87 median score. For `Nc1ccc(O)c(C(=O)O)c1` [Peptide 5-ASA, 5-ASA, reference compound], in test [2] (setting [7]), the “Histologic evaluation (median score)” value was 3.3 median score, the “MPO (% of TNBS + Saline)” value is recorded as 49 % of TNBS + Saline and the “Macroscopic evaluation (median score)” value is recorded as 1.5 median score. With KYTPEL [API-101.133, KYTPEL], the Emax in test [1] (setting [5]) is under 10%.

With “Kineret: Amgen drug, a selective blocker of IL-1; commercial analog of IL-1R antagonist (IL-Ra) [reference compound]”, in test [2] (setting [8]), the “Histologic evaluation (median score)” value is listed as 2 (Small ulcer (<5 crypts)) and the “MPO (% of TNBS + Saline)” value is 63 % of TNBS + Saline. As for RFVPELA [API-101.127, RFVPELA], the Emax in test [1] (setting [5]) was under 30%.

RTVLSNL [APG-206.8, RTVLSNL]: the Emax in test [3] amounted to 100%. For “Remicade ®: anti-TNFα [reference compound]”, in test [2] (setting [9]), the “Histologic evaluation (median score)” value was determined as 2.5 median score, the “MPO (% of TNBS + Saline)” value is 88 ± 41 % of TNBS + Saline and the “Macroscopic evaluation (median score)” value turned out to be 0.5 median score.
